According to US20130171079A1, “COMPOSITION TO STABILISE KOJIC ACID” (Pangaea Laboratories Ltd., priority 2011, published 2013):

Legend:
[1] = background statement; accelerated by heat, UV or low pH; cited from earlier work
[2] = Colour-change stability test of 2% kojic acid in an aqueous cosmetic base with sodium metabisulphite and/or propyl gallate; type: physicochemical; settings: over 42 days, room temperature, 2% kojic acid aqueous base
Protocol: A test was conducted to measure the effect of sodium metabisulphite and propyl gallate on the stability of kojic acid in aqueous cosmetic or pharmaceutical compositions. In this regard kojic acid is known to change colour from a slight yellow to very dark yellow as it degrades, and so colour change was used as the indicator of stability vs. degradation. All samples contained 2% kojic acid in an aqueous cosmetic base. [table] Each sample was photographed and optically assessed against a 20-stage yellow colour spectrum, where 1 was a very pale straw yellow, and 20 was a dark yellow. Photographs were taken on day 1, day 7 and day 42. In between photographs, the samples were stored together at normal room temperature.

[3] = Earlier experiments on stability (discolouration) of kojic acid solutions with stabilisers; type: physicochemical; settings: two month period
From the text: One useful, if obvious, solution to the problem would be to add a preservative such as sodium metabisulphite. Sodium metabisulphite is in a class of preservatives that release sulphur dioxide. […] However this option is not enough for two reasons. Firstly, two months is not sufficient shelf life for a cosmetic or pharmaceutical composition. Secondly, a preferable format for a skin lightening composition would also include one or more other lightening ingredients, such as lactic acid, niacinamide and ascorbic acid. The net effect of these ingredients may lower the pH, and accelerate the degradation of kojic acid. This has been shown in experiments to overcome the stabilising effect of sodium metabisulphite during a two month period.
It was then hypothesised that reducing agents or antioxidants may help by preventing free radical formation. Various antioxidants were tested without noticeable effect.
Researchers expected the combination to deliver better results that propyl gallate, but worse results than sodium metabisulphite alone. Instead the kojic acid solution remained completely clear for more than two months. The result is certainly not additive and therefore must be due to some previously unknown synergy between sodium metabisulphite and propyl gallate.

Row | SMILES | stability of kojic acid in solution (in words) [1] | effect of the additive on stability of kojic acid (in words) [2] | stabilisation / discolouration of kojic acid solution (in words) [3]
1 | O=c1cc(CO)occ1O [kojic acid] | degrades within weeks in solution |  | 
2 | O=S([O-])S(=O)(=O)[O-].[Na+].[Na+] [sodium metabisulphite] |  | improved stability slightly | keeping discolouration to a low level for up to two months
3 | CCCOC(=O)c1cc(O)c(O)c(O)c1 [propyl gallate] |  | worsened stability slightly | 
